One may read the IC50 as the concentration needed to halve the response being measured.

This is an account of results in patent publication US9707283B2, “Genetically modified babesia parasites expressing protective tick antigens and uses thereof” (The United States of America as represented by the …, priority 2007, dated 2017).

In brackets after ≈: the same amount, converted by molar mass.

One test deals with B. bovis Mo7 strain. Briefly: Blasticidin inhibition of B. bovis growth in in vitro cultures. It counts as cell-based, Babesia bovis. The method, then:
B. bovis parasites of the Mo7 strain were cultured in ˜1 ml cultures in 24 well plates containing 10% bovine red blood cells. Triplicate wells were cultured with or without increasing amounts of blasticidin added to the culture media at […], 2.4, and 4.8 μg/ml, prepared from a 5 mg/ml stock solution of blasticidin (Invitrogen) in sterile water, for three consecutive days. Culture media was replaced daily. The percentage of parasitized erythrocytes (ppe) was estimated by microscopic counting of Diff-Quik (Dade Behring) stained slides as described (Suarez and McElwain, (2008) Exp Parasitol. 118: 498-504). Percentage B. bovis inhibition was calculated by dividing the mean ppe in triplicate blasticidin treated wells by the mean ppe in triplicate control wells grown in the absence of blasticidin, and multiplying by 100.
To determine whether B. bovis growth could be inhibited with blasticidin, and to estimate the concentration of blasticidin appropriate for establishing a blasticidin/blasticidin deaminase (bsd) transfection system, B. bovis Mo7 strain parasites were cultured in the presence of varying concentrations of blasticidin ranging from 0 to 5 μg/ml in triplicate wells. The percentage of parasitized erythrocytes (ppe) in each well was determined for the first three days after splitting the cultures in each well to a starting ppe of 0.5%. […] Subsequent stable transfection experiments were performed using either 0.3 or 0.6 μg/ml, blasticidin.

Test [1] has as its system B. bovis control parasites transfected with pBS. Description: Growth curves of mock pBS-transfected control parasites with blasticidin. The conditions noted are these: blasticidin at 6.4 μg/ml. It counts as cell-based, Babesia bovis. As for the experimental part:
(§1) Growth characteristics of the blasticidin selected parasite line 1-2-124 were examined and compared with mock pBS-transfected control parasites in the presence or absence of 6.4 μg/ml blasticidin. […] In addition, no differences were observed between growth rates of parasite cell line 1-2-124 and control parasites in the absence of blasticidin.

The test system of test [2] is B. bovis transfected parasite line 1-2-124 (gfp-bsd). Briefly: Growth curves of blasticidin selected parasite line 1-2-124 with blasticidin. The class given is cell-based, Babesia bovis. The conditions noted are these: blasticidin at 6.4 μg/ml, 10 times higher than used for original selection. As for the experimental part:
as §1

Test [3] concerns Plasmodium falciparum parasites. The conditions noted are these: calculated for Plasmodium falciparum parasites, given for comparison; cited from earlier work.

With `CN(CC[C@H](N)CC(=O)N[C@H]1C=C[C@H](n2ccc(N)nc2=O)O[C@@H]1C(=O)O)C(=N)N` [blasticidin], the “50% inhibitory concentration of blasticidin (IC50)” value with B. bovis Mo7 strain (Mo7 strain, in vitro culture, after three days of drug selection, percentage of parasitized erythrocytes) is about 0.4 µg/mL. For the same molecule, the “concentration of blasticidin resulting in negligible parasite growth” value with B. bovis Mo7 strain (Mo7 strain, in vitro culture, three days) lay in the range of 0.64 to 1.25 µg/mL. In the test on B. bovis Mo7 strain (blasticidin dose of 5 μg/ml, after three days in culture), the “infected erythrocytes in stained slides” value is “No B. bovis infected erythrocytes could be detected”. Moreover, the “parasite growth in the presence of blasticidin” value in test [1] is given as “not able to grow”. In test [2], the “parasite growth with or without blasticidin” value is reported as “able to grow at similar rates”. Besides, in test [3], the IC50 was 0.35 µg/mL (≈ 0.829 µM).
